Assay results from US20260232666A1, “COMPOSITIONS AND METHODS FOR INHIBITION OF RAS” (TheRas, Inc., priority 2023, published 2026).

Columns and labels:
[1] = biological target: T1, Avi-KRAS G12C (1-169) GppNHp/RAF1 RBD-3×FLAG (52-151) (Homo sapiens, UniProt P01116, G12C); assay: Raf1 RBD-KRAS G12C-GppNHp disruption assay (protein:protein interaction HTRF); type: biochemical
T1 construct: Avi-KRAS G12C (1-169) GppNHp; Avi (N)
In short: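 HTRF measuring RAF1 RBD binding to GppNHp-loaded KRAS G12C (50 nM) in Tris pH 7.5, 100 mM NaCl, 5 mM MgCl2, 10% DMSO. Compound, KRAS, RBD and detection reagents each added sequentially with 1 h room-temperature incubations; 10-point titration; excitation 320 nm, emission 615 nm; activity as % of DMSO; IC50 derived.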

pERK in NCI-H358 cells = assay: Cell-based pERK HTRF assay (pERK inhibition in H358 cells); details: Homo sapiens, NCI-H358, 0.5 h, 30 min incubation
In short: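 NCI-H358 cells were seeded at 4×10^4 cells/well in RPMI/10% FBS, then treated next day for 30 min at 0.25% DMSO (9-point, 3-fold series from 75 μM). Lysates were read by HTRF (d2/Eu cryptate antibody pair, 615 nm emission) after 4–24 h at room temperature to give pERK IC50.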

T1 sequence (P01116 1-169 isoform P01116-2 G12C limits assumed): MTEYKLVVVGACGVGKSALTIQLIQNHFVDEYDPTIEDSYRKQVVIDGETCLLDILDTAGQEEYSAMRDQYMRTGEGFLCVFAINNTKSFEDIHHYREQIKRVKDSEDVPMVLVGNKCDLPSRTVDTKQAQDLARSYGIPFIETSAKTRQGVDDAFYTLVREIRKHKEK

Row | IC50 [1] [nM] | IC50 (pERK in NCI-H358 cells) [nM] | Compound
1 | < 500 | < 100 | C=CC(=O)N1C[C@H](N(C)c2nc(OC[C@@]34CCCN3C[C@H](F)C4)nc3cc(-c4ccc(F)c5sc(N)c(C#N)c45)c(F)cc23)C[C@H]1C [Compound 148]
2 | < 500 | < 100 | C=CC(=O)N1CC[C@@H](N(CC)c2nc(OC[C@@]34CCCN3C[C@H](OC)C4)nc3cc(-c4ccc(F)c5sc(N)c(C#N)c45)c(F)cc23)[C@H]1C [Compound 149]
3 | < 500 | < 100 | C=CC(=O)N1CC[C@@H](N(C)c2nc(OC[C@@]34CCCN3C[C@H](OC)C4)nc3c(F)c(-c4ccc(F)c5sc(N)c(C#N)c45)c(C(F)(F)F)cc23)[C@H]1C [Compound 151]
4 | < 500 | < 100 | C=CC(=O)N1CC[C@@H](N(C)c2nc(OC[C@]34CCCN3C[C@H](OC)C4)nc3c(F)c(-c4ccc(F)c5sc(N)c(C#N)c45)c(C(F)(F)F)cc23)[C@H]1C [Compound 156]
5 | < 500 | < 100 | C=CC(=O)N1CC[C@@H](N(CC)c2nc(OC[C@]34CCCN3C[C@H](F)C4)nc3c(F)c(-c4ccc(F)c5sc(N)c(C#N)c45)c(C(F)(F)F)cc23)[C@H]1C [Compound 159]
6 | < 500 | < 100 | C=CC(=O)N1CC[C@@H](N(C)c2nc(OC[C@]34CCCN3C[C@H](OC)C4)nc3c(F)c(-c4ccc(F)c5sc(N)c(C#N)c45)c(Cl)cc23)[C@H]1C [Compound 161]
7 | < 500 | < 100 | C=CC(=O)N1CC[C@@H](N(CC)c2nc(OC[C@]34CCCN3C[C@H](F)C4)nc3c(F)c(-c4ccc(F)c5sc(N)c(C#N)c45)c(Cl)cc23)[C@H]1C [Compound 165]
8 | < 500 | < 100 | C=CC(=O)N1CC[C@@H](N(CC)c2nc(OC[C@]34CCCN3C[C@H](F)C4)nc3cc(-c4ccc(F)c5sc(N)c(C#N)c45)c(F)cc23)[C@H]1C [Compound 167]
9 | < 500 | 100 to 1000 | C=CC(=O)N1CC[C@@H](N(CC)c2nc(OC[C@]34CCCN3C[C@H](OC)C4)nc3c(F)c(-c4ccc(F)c5sc(N)c(C#N)c45)ccc23)[C@H]1C [Compound 169]

Continued, compound first:

Row | Compound | IC50 [1] [nM] | IC50 (pERK in NCI-H358 cells) [nM]
10 | C=CC(=O)N1CC[C@@H](N(CC)c2nc(OC[C@@H]3C[C@@H](F)CN3C)nc3c(F)c(-c4ccc(F)c5sc(N)c(C#N)c45)ccc23)[C@H]1C [Compound 142] | < 500 | < 100
11 | C=CC(=O)N1CC[C@@H](N(C)c2nc(OC[C@@H]3C[C@@H](F)CN3CC)nc3c(F)c(-c4ccc(F)c5sc(N)c(C#N)c45)c(C(F)(F)F)cc23)[C@@H]1C [Compound 144] | < 500 | < 100
12 | C=CC(=O)N1CC[C@@H](N(C)c2nc(OC[C@@H]3C[C@@H](F)CN3C)nc3c(F)c(-c4nc(N)cc(C)c4C(F)(F)F)c(C(F)(F)F)cc23)[C@H]1C [Compound 145] | < 500 | 100 to 1000
13 | C=CC(=O)N1C[C@H](N(C)c2nc(OC[C@@H]3CCCN3C)nc3c(F)c(-c4ccc(F)c5sc(N)c(C#N)c45)c(C(F)(F)F)cc23)C[C@H]1C [Compound 147] | < 500 | < 100
14 | C=CC(=O)N1CC[C@@H](N(CC)c2nc(OC[C@@]34CCCN3C[C@H](OC)C4)nc3c(F)c(-c4ccc(F)c5sc(N)c(C#N)c45)c(C(F)(F)F)cc23)[C@H]1C [Compound 150] | < 500 | < 100
15 | C=CC(=O)N1C[C@H](N(C)c2nc(OC[C@@H]3CCCN3C)nc3c(F)c(-c4ccc(F)c5sc(N)c(C#N)c45)c(C(F)(F)F)cc23)C[C@@H]1C [Compound 153] | < 500 | < 100
16 | C=CC(=O)N1CC[C@@H](N(CC)c2nc(OC[C@@H]3CCCN3C)nc3c(F)c(-c4nc(N)cc(C)c4C(F)(F)F)c(C(F)(F)F)cc23)[C@H]1C [Compound 155] | < 500 | < 100
17 | C=CC(=O)N1CC[C@@H](N(CC)c2nc(OC[C@]34CCCN3C[C@H](OC)C4)nc3c(F)c(-c4ccc(F)c5sc(N)c(C#N)c45)c(C(F)(F)F)cc23)[C@H]1C [Compound 158] | < 500 | < 100
18 | C=CC(=O)N1CC[C@@H](N(CC)c2nc(OC[C@@]34CCCN3C[C@H](OC)C4)nc3c(F)c(-c4ccc(F)c5sc(N)c(C#N)c45)c(Cl)cc23)[C@H]1C [Compound 163] | < 500 | < 100
19 | C=CC(=O)N1CC[C@@H](N(CC)c2nc(OC[C@]34CCCN3C[C@H](OC)C4)nc3c(F)c(-c4ccc(F)c5sc(N)c(C#N)c45)c(Cl)cc23)[C@H]1C [Compound 164] | < 500 | < 100
